Experimental findings from patent US20250205204A1, “Transcription Factor Brn2 Inhibitory Compounds for Use as Therapeutics” (The University of British Columbia, priority 2021, published 2025) are described below.

Series [1] in a line: Metabolic stability in liver microsomes (MLM). The settings on record: 0.25 mg/mL protein. Format: in vitro ADME, mice. A digest of the protocol: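 Mouse liver microsomes (0.25 mg/mL protein) in 50 mM potassium phosphate pH 7.4 at 37 °C with 1 µM compound, 1 mM NADPH, 0.1% DMSO; sampled 0–60 min in duplicate. LC-MS/MS parent depletion gives half-life; CL'int in mL/min/kg scaled with 45 mg protein/g liver, 90 g liver.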

The next series deals with 16D^CRPC cells. Kind of series: Cell proliferation, 16D cells that do not express BRN2 (crystal violet). Format: cell-based. The settings on record: result in words. Here is the method: Step 3: Cell Proliferation
Plate 42DE^NZR (˜7000 cells per well) and 16D^CRPC (˜5000 cells per well) cells in 96 well plate with a volume of 100 μL per well. • 2. Next day 1 mL aliquots of media are combined with 3× the desired concentration of compounds. The aliquots are vortexed and 50 μL of each 3× concentration is added to the 100 μL of media in each well to give the ix desired concentration.
The following are the desired concentrations:
0, 10 nM, 100 nM, 500 nM, 1 μM, 2.5 μM, 5 μM, 10 μM, 15 μM, 20 μM, 30 μM. • 3. Approximately 72 hours later, 17 μL of 10% Glutaraldehyde is added to each well and plates are placed on a shaker for 20-30 minutes. • 4. Media is washed off the fixed cells by slow submersion in a container of water. Then the water is removed by tapping the plate upside down. • 5. 75 μL of Crystal Violet™ solution is added into the 96 well plates and placed on a shaker for ˜30 minutes. • 6. Media is washed off the fixed cells by repeated slow submersion in a container of water and the plates are allowed to dry over-night. • 7. Next day, 75 μL of Sorensen Solution is accurately pipetted into each well. The plates placed on a shaker for ˜30 minutes. • 8. Absorbance is measured in the plate at 590 nm. Compounds that Show Specificity Towards 42DE^NZR Cells Vs 16D^CRPC Cells Progress to Step 4.
In TABLES 1 and 2, in columns Met Stab % and T½, refers to compound's stability in MLM. There is a distinction in TABLES 1 and 2 difference between “Active” and “Specific” or “Specificity”. Some of the compounds were first tested to quantify inhibition of BRN2 transcriptional activity in a luciferase assay to determine BRN2 inhibition at 10 μM and 30 μM concentrations. […] Generally, compounds having low inhibitory activity were compounds with less than about ˜30% or activation at either concentration (i.e. 10 μM or 30 μM). Furthermore, some compounds that lacked specificity could also show off-target effects.

On to `O=C1/C(=N\Nc2nc3ccccc3s2)Cc2ccccc21` [7-62, (Z)-2-(2-(benzo[d]thiazol-2-yl)hydrazineylidene)-2,3-dihydro-1H-inden-1-one], for which the half-life at 1 μM in series [1] (mouse, liver microsomes, pH 7.4, 1 μM compound, read-out: T1/2 in mins (MLM)) was 40 min. In addition, the “Met Stab % (60 mins) MLM” value in series [1] (percent remaining at 60 min, 1 μM compound, 1 mM NADPH) was 31%. Further, in the series with 16D^CRPC cells, the “effect on 16D” value is reported as “no effect on 16D”.
